Results from the supplement of paper PMC8671470.

Assays:
Details in all cases: 72 h
BV-173 [1] = assay: cell viability (% survival relative to DMSO control, bortezomib = 0%); higher = less cytotoxic
Procedure, shortened: (§1)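 Fifteen myeloid leukaemia cell lines (10 AML, 5 CML) were seeded at a density titrated to the linear growth range. They went into 384-well plates with compounds pre-printed at 1, 10, 100, 1000 or 10000 nM in duplicate. After 72 h at 37 °C with 5% CO2, viability was read by CellTiter-Glo luminescence. Values are percent survival, with vehicle set to 100% and a 10 µM positive control to 0%, averaged over the duplicates.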

KG-1 [2] = assay: as above
Procedure, shortened: as §1

K-562 [3] = assay: as above
Procedure, shortened: as §1

MOLM-13 [4] = assay: as above
Procedure, shortened: as §1

ML-2 [5] = assay: as above
Procedure, shortened: as §1

Mono-Mac-6 [6] = assay: as above
Procedure, shortened: as §1

KU-812 [7] = assay: as above
Procedure, shortened: as §1

KCL-22 [8] = assay: as above
Procedure, shortened: as §1

MV4-11 [9] = assay: as above
Procedure, shortened: as §1

SHI-1 [10] = assay: as above
Procedure, shortened: as §1

THP-1 [11] = assay: as above
Procedure, shortened: as §1

NOMO-1 [12] = assay: as above
Procedure, shortened: as §1

LAMA-84 [13] = assay: as above
Procedure, shortened: as §1

HL-60 [14] = assay: as above
Procedure, shortened: as §1

HEL [15] = assay: as above
Procedure, shortened: as §1

BV-173 [16] = tested on: BV-173
Procedure, shortened: (§2)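 For the IC50, dose–response curves were fitted with a log-logistic model. The data came from fifteen myeloid leukaemia cell lines grown in RPMI 1640 at densities in the linear growth range and incubated in 384-well plates for 72 h at 37 °C under 5% CO2. Doses were five tenfold steps from 1 to 10,000 nM in duplicate, and luminescent ATP viability was normalised to vehicle and to a positive control at 10 µM before four-parameter fitting.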

KG-1 [17] = tested on: KG-1
Procedure, shortened: as §2

K-562 [18] = tested on: K-562
Procedure, shortened: as §2

MOLM-13 [19] = tested on: MOLM-13
Procedure, shortened: as §2

ML-2 [20] = tested on: ML-2
Procedure, shortened: as §2

Mono-Mac-6 [21] = tested on: Mono-Mac-6
Procedure, shortened: as §2

KU-812 [22] = tested on: KU-812
Procedure, shortened: as §2

KCL-22 [23] = tested on: KCL-22
Procedure, shortened: as §2

MV4-11 [24] = tested on: MV4-11
Procedure, shortened: as §2

SHI-1 [25] = tested on: SHI-1
Procedure, shortened: as §2

THP-1 [26] = tested on: THP-1
Procedure, shortened: as §2

NOMO-1 [27] = tested on: NOMO-1
Procedure, shortened: as §2

LAMA-84 [28] = tested on: LAMA-84
Procedure, shortened: as §2

HL-60 [29] = tested on: HL-60
Procedure, shortened: as §2

HEL [30] = tested on: HEL
Procedure, shortened: as §2

CC(=O)Nc1nc(C)c(-c2ccc(Cl)c(S(=O)(=O)NCCO)c2)s1 [PIK93]
cell viability [%]
Details | 1 nM | 10 nM | 100 nM | 1000 nM | 10000 nM
BV-173 [1] | 119 | 103 | 95.8 | 45.6 | 9.29
HEL [15] | 111 | 94 | 96.8 | 74.5 | 33.1
HL-60 [14] | 119 | 120 | 84.2 | 50.7 | 3.89
K-562 [3] | 134 | 98.9 | 110 | 82.3 | 31.9
KCL-22 [8] | 132 | 99.4 | 100 | 64.2 | 20.7
KG-1 [2] | 93.9 | 106 | 100 | 80.8 | 32.6
KU-812 [7] | 92.6 | 93.9 | 94.7 | 80.1 | 29.2
LAMA-84 [13] | 113 | 95.3 | 102 | 90.6 | 55.8
ML-2 [5] | 106 | 98.8 | 92.6 | 38.3 | 8.96
MOLM-13 [4] | 129 | 111 | 89.9 | 50.2 | 0.72
MV4-11 [9] | 96.3 | 95.7 | 84.5 | 51.1 | 0.217
Mono-Mac-6 [6] | 95.8 | 90.9 | 85.5 | 52.4 | 17.6
NOMO-1 [12] | 101 | 96.7 | 92.7 | 69.1 | 22.9
SHI-1 [10] | 104 | 94.6 | 97.3 | 57.6 | 13.4
THP-1 [11] | 105 | 102 | 112 | 74.7 | 24.5

Details | IC50 (cell viability) [µM]
BV-173 [16] | 0.792
HEL [30] | 2.19
HL-60 [29] | 0.935
K-562 [18] | 2.66
KCL-22 [23] | 1.12
KG-1 [17] | 2.56
KU-812 [22] | 2.69
LAMA-84 [28] | 8.06
ML-2 [20] | 0.607
MOLM-13 [19] | 0.959
MV4-11 [24] | 1.09
Mono-Mac-6 [21] | 1.02
NOMO-1 [27] | 2.05
SHI-1 [25] | 1.09
THP-1 [26] | 1.51

CCCCCCCC/C=C\CCCCCCCC(=O)Nc1ccccc1 [Octadec-9-Enoic Acid Phenylamide]
cell viability [%]
Details | 1 nM | 10 nM | 100 nM | 1000 nM | 10000 nM
BV-173 [1] | 98.4 | 94.8 | 99.7 | 100 | 95.7
HEL [15] | 104 | 92.9 | 92.3 | 106 | 104
HL-60 [14] | 96.1 | 105 | 113 | 100 | 124
K-562 [3] | 110 | 92.7 | 95.8 | 104 | 93.4
KCL-22 [8] | 103 | 95.7 | 99.5 | 103 | 96.6
KG-1 [2] | 107 | 96.9 | 99.9 | 99.2 | 97.4
KU-812 [7] | 100 | 96.3 | 95.6 | 96.8 | 108
LAMA-84 [13] | 107 | 97.8 | 101 | 103 | 99.4
ML-2 [5] | 113 | 105 | 99.9 | 103 | 108
MOLM-13 [4] | 106 | 90.3 | 91.1 | 98.3 | 108
MV4-11 [9] | 118 | 100 | 108 | 110 | 82.6
Mono-Mac-6 [6] | 97.1 | 103 | 108 | 99.5 | 101
NOMO-1 [12] | 97 | 97.1 | 97.1 | 99.2 | 99.6
SHI-1 [10] | 109 | 94.4 | 103 | 100 | 98
THP-1 [11] | 98.7 | 97.9 | 103 | 93.5 | 107

Details | IC50 (cell viability) [µM]
BV-173 [16] | > 10
HEL [30] | > 10
HL-60 [29] | > 10
K-562 [18] | > 10
KCL-22 [23] | > 10
KG-1 [17] | > 10
KU-812 [22] | > 10
LAMA-84 [28] | > 10
ML-2 [20] | > 10
MOLM-13 [19] | > 10
MV4-11 [24] | > 10
Mono-Mac-6 [21] | > 10
NOMO-1 [27] | > 10
SHI-1 [25] | > 10
THP-1 [26] | > 10

CCN(CC)C(=S)SSC(=S)N(CC)CC [Disulfiram]
cell viability [%]
Details | 1 nM | 10 nM | 100 nM | 1000 nM | 10000 nM
BV-173 [1] | 96 | 103 | 97.6 | 37.5 | -0.175
HEL [15] | 101 | 86.8 | 96.6 | 87.9 | 68
HL-60 [14] | 100 | 104 | 89.2 | 83.3 | 93.7
K-562 [3] | 90.2 | 99.1 | 89.8 | 29.7 | 70.9
KCL-22 [8] | 72.4 | 92.3 | 94.4 | 61.3 | 62.7
KG-1 [2] | 92.7 | 89.8 | 92.7 | 2.8 | 22
KU-812 [7] | 99.7 | 99.3 | 97 | 66 | 66.9
LAMA-84 [13] | 93.5 | 94.5 | 94.4 | 90.8 | 67.7
ML-2 [5] | 92 | 106 | 91.4 | 6.36 | 11.6
MOLM-13 [4] | 94.1 | 76.7 | 93.3 | 98.2 | 92.7
MV4-11 [9] | 94.1 | 114 | 98.3 | 88.7 | 53.5
Mono-Mac-6 [6] | 91.9 | 100 | 67.9 | 25.5 | 62.5
NOMO-1 [12] | 95.3 | 99.4 | 101 | 92 | 88.9
SHI-1 [10] | 87.7 | 92.8 | 44.8 | -0.354 | 65.1
THP-1 [11] | 94.5 | 95.6 | 48.1 | 30.5 | 57.4

Details | IC50 (cell viability) [µM]
BV-173 [16] | 0.778
HEL [30] | > 10
HL-60 [29] | > 10
K-562 [18] | 0.447
KCL-22 [23] | > 10
KG-1 [17] | 0.272
KU-812 [22] | > 10
LAMA-84 [28] | > 10
ML-2 [20] | 0.264
MOLM-13 [19] | > 10
MV4-11 [24] | 7.02
Mono-Mac-6 [21] | 0.171
NOMO-1 [27] | > 10
SHI-1 [25] | 0.0728
THP-1 [26] | 0.0708
